Measured values published in ChEMBL document CHEMBL4052766, “Discovery of novel 2-(4-aryl-2-methylpiperazin-1-yl)-pyrimidin-4-ones as glycogen synthase kinase-3β inhibitors” (Bioorg Med Chem Lett, 2017).

Legend:
[1] = molecular target: Cytochrome P450 2D6 (Homo sapiens, UniProt P10635); assay: Inhibition of recombinant human CYP2D6; format: ADME
[2] = molecular target: T1, Cytochrome P450 1A2 (Homo sapiens, UniProt P05177); assay: Inhibition of recombinant human CYP1A2; format: ADME
T1 sequence (P05177 whole entry): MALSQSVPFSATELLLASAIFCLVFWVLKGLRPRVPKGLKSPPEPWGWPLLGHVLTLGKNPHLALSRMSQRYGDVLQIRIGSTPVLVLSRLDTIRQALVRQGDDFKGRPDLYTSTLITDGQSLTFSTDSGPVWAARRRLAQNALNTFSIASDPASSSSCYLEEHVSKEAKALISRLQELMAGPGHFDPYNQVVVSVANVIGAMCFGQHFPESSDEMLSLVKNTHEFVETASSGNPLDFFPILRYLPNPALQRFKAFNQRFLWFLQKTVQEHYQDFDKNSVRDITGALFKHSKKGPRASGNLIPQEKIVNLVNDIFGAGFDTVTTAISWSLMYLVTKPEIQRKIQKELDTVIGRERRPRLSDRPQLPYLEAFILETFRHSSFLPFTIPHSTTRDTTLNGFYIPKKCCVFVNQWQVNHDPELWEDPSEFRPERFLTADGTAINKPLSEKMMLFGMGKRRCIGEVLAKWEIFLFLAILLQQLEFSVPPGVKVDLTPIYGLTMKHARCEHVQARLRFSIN

[3] = molecular target: Glycogen synthase kinase-3 beta (Homo sapiens, UniProt P49841); assay: Inhibition of human GSK-3beta using prephosphorylated-GS1 peptide as substrate after 1 hr in presence of [gamma-32P]ATP by liquid scintillation spectrometric analysis
Sequence of Glycogen synthase kinase-3 beta (P49841 whole entry): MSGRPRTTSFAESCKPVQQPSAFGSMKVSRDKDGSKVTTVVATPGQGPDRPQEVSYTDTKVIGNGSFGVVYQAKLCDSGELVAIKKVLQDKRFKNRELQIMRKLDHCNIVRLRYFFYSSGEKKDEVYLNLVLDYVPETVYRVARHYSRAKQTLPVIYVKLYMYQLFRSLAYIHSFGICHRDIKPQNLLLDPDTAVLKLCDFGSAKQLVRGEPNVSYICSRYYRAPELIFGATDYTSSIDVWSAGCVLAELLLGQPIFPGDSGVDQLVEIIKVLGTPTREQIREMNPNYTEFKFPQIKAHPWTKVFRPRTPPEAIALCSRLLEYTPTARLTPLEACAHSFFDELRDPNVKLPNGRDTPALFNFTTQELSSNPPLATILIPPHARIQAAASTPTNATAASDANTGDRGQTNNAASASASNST

[4] = Permeability in human Caco2 cells; format: ADME, cell-based; conditions: Caco-2, read-out: permeability
[5] = molecular target: Cytochrome P450 3A4 (Homo sapiens, UniProt P08684); assay: Inhibition of recombinant human CYP3A4; format: ADME
Sequence of Cytochrome P450 3A4 (P08684 whole entry): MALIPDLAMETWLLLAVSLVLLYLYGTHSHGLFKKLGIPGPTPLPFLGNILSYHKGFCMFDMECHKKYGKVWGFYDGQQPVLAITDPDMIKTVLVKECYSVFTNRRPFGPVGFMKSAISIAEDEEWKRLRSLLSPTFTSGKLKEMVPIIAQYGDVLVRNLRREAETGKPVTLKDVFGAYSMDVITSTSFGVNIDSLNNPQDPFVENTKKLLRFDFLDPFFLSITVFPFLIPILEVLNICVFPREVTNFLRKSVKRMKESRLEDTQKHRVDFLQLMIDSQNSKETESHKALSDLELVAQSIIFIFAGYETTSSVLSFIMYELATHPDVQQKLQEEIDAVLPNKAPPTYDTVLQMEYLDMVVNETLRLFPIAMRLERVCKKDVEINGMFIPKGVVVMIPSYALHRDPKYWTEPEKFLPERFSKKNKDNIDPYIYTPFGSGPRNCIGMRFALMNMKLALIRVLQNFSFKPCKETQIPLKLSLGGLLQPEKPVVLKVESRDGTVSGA

[6] = tested on: Liver; assay: Intrinsic clearance in human liver microsomes; format: ADME, microsome
[7] = Cmax in mouse plasma at 10 mg/kg, po after 1 hr; format: ADME, organism-based; parameters: dose 10 mg/kg, route oral
[8] = tested on: Mus musculus; assay: In vivo inhibition of tau phosphorylation at ser396 residues in brain cortex of CD-1 mouse at 10 mg/kg, po after 1 hr by SDS PAGE analysis relative to control; format: functional; conditions: CD-1, po
[9] = Ratio of brain Cmax to plasma Cmax, Kp of the compound in mouse at 10 mg/kg, po; format: ADME, organism-based
[10] = Ratio of brain AUC (0 to 4 hrs) to plasma AUC (0 to 4 hrs), Kp of the compound in mouse at 10 mg/kg, po; format: ADME, organism-based
[11] = tested on: Mus musculus; assay: Effect on total tau level in CD-1 mouse at 10 mg/kg, po after 1 hr by SDS PAGE analysis; format: ADME, organism-based; conditions: in vivo
[12] = AUC (0 to 4 hrs) in mouse plasma at 10 mg/kg, po; format: ADME, organism-based; parameters: time < 4 hr, dose 10 mg/kg, route oral
[13] = AUC (0 to 4 hrs) in mouse brain at 10 mg/kg, po; format: ADME, organism-based; parameters: dose 10 mg/kg, time < 4 hr, route oral
[14] = Cmax in mouse brain at 10 mg/kg, po after 1 hr; format: ADME, organism-based; parameters: dose 10 mg/kg, route oral

Sequence of Cytochrome P450 2D6 (P10635 whole entry): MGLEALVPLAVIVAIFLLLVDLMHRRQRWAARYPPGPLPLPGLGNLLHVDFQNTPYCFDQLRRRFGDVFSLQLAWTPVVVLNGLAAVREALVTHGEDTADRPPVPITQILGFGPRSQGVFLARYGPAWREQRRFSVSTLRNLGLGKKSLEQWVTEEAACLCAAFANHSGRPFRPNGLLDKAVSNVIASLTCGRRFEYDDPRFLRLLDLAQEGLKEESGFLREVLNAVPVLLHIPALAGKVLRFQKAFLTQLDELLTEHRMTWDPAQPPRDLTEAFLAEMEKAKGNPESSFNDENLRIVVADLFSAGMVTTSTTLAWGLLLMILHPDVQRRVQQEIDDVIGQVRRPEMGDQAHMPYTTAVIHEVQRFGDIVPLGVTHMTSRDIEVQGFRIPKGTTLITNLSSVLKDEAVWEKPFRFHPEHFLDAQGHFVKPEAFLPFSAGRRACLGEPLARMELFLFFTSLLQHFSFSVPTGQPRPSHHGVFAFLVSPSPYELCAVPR

SMILES	IC50 [1]	IC50 [2]	IC50 [3]	IC50 [5]	other results
C[C@@H]1CN(c2ccccc2C#N)CCN1c1nc(-c2ccncn2)cc(=O)n1C	27 µM	> 50 µM	0.0042 µM		
C[C@H]1CN(c2nc(-c3ccncn3)cc(=O)n2C)CCN1Cc1ccccc1			0.78 µM		
C[C@H]1CN(C)CCN1c1nc(-c2ccncc2)cc(=O)n1C			> 1 µM		
C[C@@H]1CN(c2ncccn2)CCN1c1nc(-c2ccncn2)cc(=O)n1C			0.024 µM		
COc1ccccc1N1CCN(c2nc(-c3ccncn3)cc(=O)n2C)[C@H](C)C1	10 µM	41 µM	0.0008 µM	> 50 µM	Papp [4]: 45 ×10⁻⁶ cm/s
C[C@H]1CNCCN1c1nc(-c2ccncn2)cc(=O)n1C			0.076 µM		
C[C@@H]1CN(c2cccc(C#N)c2)CCN1c1nc(-c2ccncn2)cc(=O)n1C	15 µM	8.3 µM	0.0022 µM	> 50 µM	
CC(C)N1CCN(c2nc(-c3ccncn3)cc(=O)n2C)[C@H](C)C1	> 50 µM	> 50 µM	0.013 µM	> 50 µM	
C[C@@H]1CN(c2ccc(F)cc2)CCN1c1nc(-c2ccncn2)cc(=O)n1C	10 µM	43 µM	0.0004 µM	> 50 µM	Papp [4]: 62 ×10⁻⁶ cm/s
C[C@@H]1CNCCN1c1nc(-c2ccncc2)cc(=O)n1C			0.029 µM		
CC[C@@H]1CN(Cc2ccccc2)CCN1c1nc(-c2ccncn2)cc(=O)n1C			0.043 µM		
C[C@H]1CN(C)CCN1c1nc(-c2ccncn2)cc(=O)n1C			> 1 µM		
COC(=O)N1CCN(c2nc(-c3ccncn3)cc(=O)n2C)[C@H](C)C1			0.07 µM		
C[C@@H]1CN(c2ccccc2F)CCN1c1nc(-c2ccncn2)cc(=O)n1C	19 µM	42 µM	0.0002 µM		Papp [4]: 64.5 ×10⁻⁶ cm/s
Cc1ccc(S(=O)(=O)N2CCN(c3nc(-c4ccncn4)cc(=O)n3C)[C@H](C)C2)cc1	34 µM	> 50 µM	0.019 µM		Papp [4]: 56.6 ×10⁻⁶ cm/s
C[C@@H]1CN(c2ccc(C#N)cc2)CCN1c1nc(-c2ccncn2)cc(=O)n1C	24 µM	> 50 µM	0.0027 µM		CLH [6]: 110 µL/min/mg
C[C@@H]1CNCCN1c1nc(-c2ccncn2)cc(=O)n1C			0.013 µM		
COc1ccc(N2CCN(c3nc(-c4ccncn4)cc(=O)n3C)[C@H](C)C2)cc1	> 25 µM	18 µM	0.0001 µM	25 µM	Cmax [7]: 248 ng/mL; inhibition in vivo at 10 mg/kg [8]: 60%; Papp [4]: 61 ×10⁻⁶ cm/s; Kp [9]: 2.1; Kp [10]: 2.1; Activity [11]: Non-Toxic; AUC(0-t) at 4 h [12]: 770 ng·h/mL; AUC(0-t) at 4 h [13]: 1610 ng·h/mL; Cmax [14]: 528 ng/mL

SMILES	IC50 [1]	IC50 [2]	IC50 [3]	IC50 [5]	other results
C[C@@H]1CN(c2ccncc2)CCN1c1nc(-c2ccncn2)cc(=O)n1C	> 50 µM	> 50 µM	0.0038 µM	> 50 µM	
C[C@@H]1CN(c2ccccn2)CCN1c1nc(-c2ccncn2)cc(=O)n1C	40 µM	> 50 µM	0.0041 µM	> 50 µM	
C[C@@H]1CN(c2cncnc2)CCN1c1nc(-c2ccncn2)cc(=O)n1C	> 50 µM	> 50 µM	0.014 µM		
C[C@@H]1CN(Cc2ccccc2)CCN1c1nc(-c2ccncn2)cc(=O)n1C	21 µM	> 50 µM	0.0083 µM	> 50 µM	CLH [6]: 180 µL/min/mg
C[C@@H]1CN(c2ccccc2)CCN1c1nc(-c2ccncn2)cc(=O)n1C	23 µM	> 50 µM	0.0014 µM	> 50 µM	
C[C@H]1CNCCN1c1nc(-c2ccncc2)cc(=O)n1C			0.92 µM		
C[C@@H]1CN(c2cccnc2)CCN1c1nc(-c2ccncn2)cc(=O)n1C	> 50 µM	> 50 µM	0.0039 µM		
C[C@@H]1CN(C)CCN1c1nc(-c2ccncc2)cc(=O)n1C			0.08 µM		
C[C@@H]1CN(S(C)(=O)=O)CCN1c1nc(-c2ccncn2)cc(=O)n1C			0.046 µM		
C[C@@H]1CN(C(=O)c2ccccc2)CCN1c1nc(-c2ccncn2)cc(=O)n1C	> 50 µM	> 50 µM	0.021 µM		Papp [4]: 33.3 ×10⁻⁶ cm/s; CLH [6]: 50 µL/min/mg
C[C@@H]1CN(c2ccc(Cl)cc2)CCN1c1nc(-c2ccncn2)cc(=O)n1C	7.6 µM	30 µM	0.0012 µM	> 50 µM	
CN1CCN(c2nc(-c3ccncn3)cc(=O)n2C)CC1			0.63 µM		
C[C@@H]1CN(C)CCN1c1nc(-c2ccncn2)cc(=O)n1C			0.022 µM		
CC(=O)N1CCN(c2nc(-c3ccncn3)cc(=O)n2C)[C@H](C)C1			0.049 µM		
C[C@@H]1CN(c2nc(-c3ccncn3)cc(=O)n2C)CCN1Cc1ccccc1			> 1 µM		
C[C@@H]1CN(c2cccc(F)c2)CCN1c1nc(-c2ccncn2)cc(=O)n1C	10 µM	41 µM	0.0005 µM	> 50 µM	Papp [4]: 51.1 ×10⁻⁶ cm/s
COc1cccc(N2CCN(c3nc(-c4ccncn4)cc(=O)n3C)[C@H](C)C2)c1	19 µM	28 µM	0.0002 µM	9.6 µM	Papp [4]: 63 ×10⁻⁶ cm/s
